Test results as given in patent US20260109721A1, “IONIZABLE CATIONIC LIPIDS INCORPORATING SILICON: SYNTHESIS AND LNP FORMULATION” (priority 2023, published 2026).

What was measured:
[1] = Encapsulation efficiency of loaded LNPs, RiboGreen RNA assay (Method A); format: physicochemical; conditions: encapsulation efficiency of mRNA-loaded LNP, Method A, RiboGreen
Procedure, shortened: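 mRNA-LNP samples diluted in TE buffer (~4-7 μg/mL RNA) and plated in duplicate with TE or Triton X-100 buffer, then 10 min at 37° C to lyse particles. RiboGreen (1:100 in TE pH 7.5) added after cooling; fluorescence ex 480/em 525, mRNA quantified against RNA standard curve.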

HepG2 cell line = assay: In vitro toxicity study on HepG2 cell line (resazurin, viability and IC50); format: cell-based, human; conditions: for IC50: Homo sapiens, lipid toxicity, HepG2, 48 h post-treatment, 6.25-800 μM, read-out: IC50 value, μM (on HepG2 cell)
Procedure, shortened: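 HepG2 cells (1000/well) were treated after overnight incubation with lipids at 6.25–800 μM for 48 h. Viability was read by resazurin fluorescence (530/580 nm) after 5 h at 37 °C, relative to ethanol vehicle controls. IC50 values came from concentration-response curves.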

[2] = HepG2 cells, 6.25 μM lipid, 48 h post-treatment, resazurin, relative to ethanol vehicle controls
[3] = HepG2 cells, 12.5 μM lipid, 48 h post-treatment, resazurin, relative to ethanol vehicle controls
[4] = HepG2 cells, 25 μM lipid, 48 h post-treatment, resazurin, relative to ethanol vehicle controls
[5] = HepG2 cells, 50 μM lipid, 48 h post-treatment, resazurin, relative to ethanol vehicle controls
[6] = HepG2 cells, 100 μM lipid, 48 h post-treatment, resazurin, relative to ethanol vehicle controls
[7] = HepG2 cells, 200 μM lipid, 48 h post-treatment, resazurin, relative to ethanol vehicle controls
[8] = HepG2 cells, 400 μM lipid, 48 h post-treatment, resazurin, relative to ethanol vehicle controls
[9] = HepG2 cells, 800 μM lipid, 48 h post-treatment, resazurin, relative to ethanol vehicle controls

| SMILES | EE (%) [1] | Viability (%) at different lipid concentrations, mean (HepG2 cell line; [2]) | Viability (%) at different lipid concentrations, mean (HepG2 cell line; [3]) | Viability (%) at different lipid concentrations, mean (HepG2 cell line; [4]) | Viability (%) at different lipid concentrations, mean (HepG2 cell line; [5]) | Viability (%) at different lipid concentrations, mean (HepG2 cell line; [6]) | Viability (%) at different lipid concentrations, mean (HepG2 cell line; [7]) | Viability (%) at different lipid concentrations, mean (HepG2 cell line; [8]) | Viability (%) at different lipid concentrations, mean (HepG2 cell line; [9]) | IC50 (HepG2 cell line; resazurin) | Viability (%) at different lipid concentrations, mean (HepG2 cell line; human, 48 h, 25 μM) |
| --- | --- | --- | --- | --- | --- | --- | --- | --- | --- | --- | --- |
| CCCCC/C=C\C/C=C\CCCCCCCCOC(CCCCCCC/C=C\C/C=C\CCCCC)O[Si](C)(C)OCCCCCCN1CCCCC1CO (stereo not shown) [Example 64, (1-((20Z,23Z)-10-((8Z,11Z)-heptadeca-8,11-dien-1-yl)-8,8-dimethyl-7,9,11-trioxa-8-silanonacosa-20,23-dien-1-yl)piperidin-2-yl)methanol] | 85% | 99.5% | 98.7% | 100.3% | 97.8% | 97.8% | 91.7% | 80.3% | 47.4% | 775 µM |  |
| CCCCC/C=C\C/C=C\CCCCCCCCOC(CCCCCN(C)CC(O)CO)O[Si](C)(C)OCCCCCCCC/C=C\C/C=C\CCCCC (stereo not shown) [Example 66, (22Z,25Z)-4,12,12-trimethyl-10-(((9Z,12Z)-octadeca-9,12-dien-1-yl)oxy)-11,13-dioxa-4-aza-12-silahentriaconta-22,25-diene-1,2-diol] | 82% | 100.5% | 97.9% | 97.2% | 96.5% | 94.2% | 95.5% | 86.0% | 42.6% | 164 µM |  |
| C#CCN(C)CCCCCCO[Si](C)(C)OC(CCCCCCC/C=C\C/C=C\CCCCC)OCCCCCCCC/C=C\C/C=C\CCCCC (stereo not shown) [Example 67, (20Z,23Z)-10-((8Z,11Z)-heptadeca-8,11-dien-1-yl)-N,8,8-trimethyl-N-(prop-2-yn-1-yl)-7,9,11-trioxa-8-silanonacosa-20,23-dien-1-amine] | 88% | 100.2% | 97.1% | 99.5% | 95.6% | 92.6% | 24.8% | 3.0% | 1.7% |  |  |
| CCCCC/C=C\C/C=C\CCCCCCCCOC(CCCCCCC/C=C\C/C=C\CCCCC)O[Si](C)(C)OCCCCCCN(C)Cc1cn(C2[C@H](O)O[C@H](CO)[C@@H](O)[C@@H]2O)nn1 (stereo partly drawn) [Example 68, (4R,5S,6R)-3-(4-((22Z,25Z)-12-((8Z,11Z)-heptadeca-8,11-dien-1-yl)-2,10,10-trimethyl-9,11,13-trioxa-2-aza-10-silahentriaconta-22,25-dien-1-yl)-1H-1,2,3-triazol-1-yl)-6-(hydroxymethyl)tetrahydro-2H-pyran-2,4,5-triol] | 88% | 99.4% | 97.7% | 107.3% | 120.2% | 117.6% | 103.6% | 68.1% | 12.3% | 461 µM |  |
| CCCCC/C=C\C/C=C\CCCCCCCCOC(CCCCCCC/C=C\C/C=C\CCCCC)O[Si](C)(C)OCCCCCCN(CCO)CCN(CCO)CCCCCCO[Si](C)(C)OC(CCCCCCC/C=C\C/C=C\CCCCC)OCCCCCCCC/C=C\C/C=C\CCCCC (stereo not shown) [Example 71, (26Z,29Z)-16-((8Z,11Z)-heptadeca-8,11-dien-1-yl)-3-((20Z,23Z)-10-((8Z,11Z)-heptadeca-8,11-dien-1-yl)-8,8-dimethyl-7,9,11-trioxa-8-silanonacosa-20,23-dien-1-yl)-6-(2-hydroxyethyl)-14,14-dimethyl-13,15,17-trioxa-3,6-diaza-14-silapentatriaconta-26,29-dien-1-ol] | 84% | 102.71% | 102.5% | 106.2% | 107.61% | 93.09% | 72.87% | 39.19% | 9.92% | 321 µM |  |
| CCCCCCCC/C=C\CCCCCCCC(OCC(CCCCCCCC)SCCCCC)O[Si](C)(C)OCCCCCCN(CCO)CCO (stereo not shown) [Example 72, (Z)-13-(heptadec-8-en-1-yl)-3-(2-hydroxyethyl)-11,11-dimethyl-16-octyl-10,12,14-trioxa-17-thia-3-aza-11-siladocosan-1-ol] | 87% | 104.3% | 94.1% | 102.5% | 101.6% | 100.3% | 96.6% | 110.6% | 103.0% | > 800 µM |  |
| CCCCCCCC/C=C\CCCCCCCC(OCCCCCCCCCCCC1CCCCC1)O[Si](C)(C)OCCCCCCN(CCO)CCO (stereo not shown) [Example 74, (Z)-25-cyclohexyl-13-(heptadec-8-en-1-yl)-3-(2-hydroxyethyl)-11,11-dimethyl-10,12,14-trioxa-3-aza-11-silapentacosan-1-ol] | 87% | 101.5% | 100.8% |  | 112.5% | 121.9% | 117.3% | 103.1% | 93.8% | > 800 µM | 107.8% |
| CCCCCCCC/C=C\CCCCCCCC(OCCC(C)CCCC(C)CCCC(C)CCCC(C)C)O[Si](C)(C)OCCCCCCN(CCO)CCO (stereo not shown) [Example 75, (Z)-13-(heptadec-8-en-1-yl)-3-(2-hydroxyethyl)-11,11,17,21,25,29-hexamethyl-10,12,14-trioxa-3-aza-11-silatriacontan-1-ol] | 89% | 110.3% | 109.2% | 105.7% | 104.5% | 102.8% | 112.9% | 102.4% | 90.2% | > 800 µM |  |
| CCCCCCCC/C=C\CCCCCCCC(OCCCCCCCCCCCCCCC(C)C)O[Si](C)(C)OCCCCCCN(CCO)CCO (stereo not shown) [Example 76, (Z)-13-(heptadec-8-en-1-yl)-3-(2-hydroxyethyl)-11,11,29-trimethyl-10,12,14-trioxa-3-aza-11-silatriacontan-1-ol] | 80% | 101.9% | 100.5% | 98.5% | 100.8% | 112.3% | 103.8% | 77.7% | 70.0% | > 800 µM |  |
| CCCCC/C=C\C/C=C\CCCCCCCCOC(CCCCCCC/C=C\C/C=C\CCCCC)O[Si](C)(C)OCCCCCCN(C)[C@H](CO)Cc1ccccc1 (stereo partly drawn) [Example 77, (2S,23Z,26Z)-2-benzyl-13-((8Z,11Z)-heptadeca-8,11-dien-1-yl)-3,11,11-trimethyl-10,12,14-trioxa-3-aza-11-siladotriaconta-23,26-dien-1-ol] | 85% | 96.2% | 99.9% | 101.0% | 103.7% | 100.6% | 100.5% | 101.1% | 73.8% | > 800 µM |  |
| CCCCCCCC/C=C\CCCCCCCCOC(CCCCCCC/C=C\CCCCCCCC)O[Si](C)(C)OCCCCCCN(C)[C@H](CO)Cc1ccccc1 (stereo partly drawn) [Example 78, (2S,Z)-2-benzyl-13-((Z)-heptadec-8-en-1-yl)-3,11,11-trimethyl-10,12,14-trioxa-3-aza-11-siladotriacont-23-en-1-ol] | 87% | 92.0% | 101.6% | 101.5% | 102.9% | 101.9% | 100.8% | 56.4% | 1.6% | 414 µM |  |
